For orientation: fraction unbound means the share of the substance not bound to proteins or other matrix. Higher therefore signals much free substance. In general, Ki refers to a measure of affinity in units of concentration, obtained from inhibition or displacement. As usually defined, the IC50 is the concentration that inhibits the measured activity by half. Low readings indicate inhibition by little substance, high ones a need for much substance. In general, CL/F refers to clearance divided by bioavailability, as obtained after extravascular dosing. As usually defined, the half-life is the time needed for the level to fall by half in the phase considered. Read a low half-life as rapid decline. In general, bioavailability refers to the share of a dose that reaches the circulation, judged against a reference dose that is usually intravenous. A high value points to much systemic uptake. What is called inhibition is the drop in the measured response relative to a control, in per cent. Read a low inhibition as a response near the control.

A short description of data set [1]: Intrinsic clearance in human liver microsomes assessed per mg protein. It counts as ADME, microsome. The conditions noted are these: read-out: CLH.
A short description of data set [2]: Intrinsic clearance in mouse liver microsomes assessed per mg protein. The class given is ADME, microsome. The conditions noted are these: read-out: CLH. (Liver microsomes are vesicles of endoplasmic reticulum, rich in cytochrome P450 enzymes.)
A short description of data set [3]: Intrinsic clearance in rat liver microsomes assessed per mg protein. The conditions noted are these: read-out: CLH. It counts as ADME, microsome.
The nature of data set [4]: Permeability from apical to basolateral side in human Caco2 cells. The settings on record: Caco-2, read-out: permeability. The class given is ADME, cell-based. For orientation: Caco-2 cells form a polarised layer with tight junctions and transporters.
Data set [5] is described as follows: Fraction unbound in human plasma. The class given is ADME, cell-free.
Data set [6] can be described thus: Fraction unbound in mouse plasma. It counts as ADME, cell-free.
The nature of data set [7]: Fraction unbound in rat plasma. It counts as ADME, cell-free.
In data set [8] the target is Voltage-gated inwardly rectifying potassium channel KCNH2 (Homo sapiens, UniProt Q12809). Description: Binding affinity to human ERG.
For data set [9], the target named is T1, Cytochrome P450 2C8 (Homo sapiens, UniProt P10632).
T1 sequence (P10632 whole entry): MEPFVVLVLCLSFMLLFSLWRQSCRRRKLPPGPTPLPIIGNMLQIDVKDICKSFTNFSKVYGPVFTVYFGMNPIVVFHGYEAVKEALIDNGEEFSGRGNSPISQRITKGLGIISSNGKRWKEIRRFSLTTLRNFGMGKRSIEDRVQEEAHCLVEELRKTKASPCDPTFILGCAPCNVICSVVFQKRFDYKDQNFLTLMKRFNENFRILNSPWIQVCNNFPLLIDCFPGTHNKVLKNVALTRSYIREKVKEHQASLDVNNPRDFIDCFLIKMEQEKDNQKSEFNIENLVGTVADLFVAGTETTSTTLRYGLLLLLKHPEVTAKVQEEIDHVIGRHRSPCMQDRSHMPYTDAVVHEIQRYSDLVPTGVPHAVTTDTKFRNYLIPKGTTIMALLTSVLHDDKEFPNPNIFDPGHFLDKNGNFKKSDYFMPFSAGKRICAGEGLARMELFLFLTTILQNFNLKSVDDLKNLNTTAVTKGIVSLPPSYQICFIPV
Description: Inhibition of CYP2C8 (unknown origin). The class given is ADME.

Data set [10] is described as follows: Clearance in rat at 0.5 mg/kg, po. The settings on record: in vivo.
In data set [11] the test system is Rattus norvegicus. Kind of data set: Volume of distribution at steady state in rat at 0.5 mg/kg, po. It counts as ADME, organism-based. The settings on record: in vivo.
Data set [12] is described as follows: Half life in rat at 0.5 mg/kg, po. It counts as ADME, organism-based. The settings on record: in vivo.
Data set [13] can be described thus: Oral bioavailability in rat at 0.5 mg/kg. It counts as ADME, organism-based. The conditions noted are these: in vivo.
Data set [14] addresses Tyrosine-protein kinase Blk (Homo sapiens) (UniProt P51451). Description: Inhibition of Blk (unknown origin) at 1 uM relative to control.
Data set [15] has as its target T2, Cytoplasmic tyrosine-protein kinase BMX (Homo sapiens) (UniProt P51813).
T2 sequence (whole entry): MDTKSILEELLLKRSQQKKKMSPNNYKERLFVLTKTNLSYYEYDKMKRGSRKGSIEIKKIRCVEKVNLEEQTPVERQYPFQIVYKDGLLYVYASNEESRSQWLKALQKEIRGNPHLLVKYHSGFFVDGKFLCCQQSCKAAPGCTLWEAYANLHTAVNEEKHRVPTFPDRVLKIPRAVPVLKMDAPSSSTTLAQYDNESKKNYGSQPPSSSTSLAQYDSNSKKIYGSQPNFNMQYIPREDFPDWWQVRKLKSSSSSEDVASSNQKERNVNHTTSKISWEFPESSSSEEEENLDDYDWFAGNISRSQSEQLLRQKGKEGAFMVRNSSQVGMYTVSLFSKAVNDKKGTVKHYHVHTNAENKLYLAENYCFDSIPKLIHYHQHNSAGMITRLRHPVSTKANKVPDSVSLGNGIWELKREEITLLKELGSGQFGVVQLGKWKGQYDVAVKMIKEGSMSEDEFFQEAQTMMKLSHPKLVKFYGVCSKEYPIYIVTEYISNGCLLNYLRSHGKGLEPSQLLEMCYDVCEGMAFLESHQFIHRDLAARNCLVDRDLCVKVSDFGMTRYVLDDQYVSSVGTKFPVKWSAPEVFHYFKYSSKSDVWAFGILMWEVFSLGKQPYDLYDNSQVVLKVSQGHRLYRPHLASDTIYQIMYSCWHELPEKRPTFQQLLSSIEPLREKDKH
Description: Inhibition of BMX (unknown origin) at 1 uM relative to control.

Data set [16] has as its target T3, Tyrosine-protein kinase TXK (Homo sapiens) (UniProt P42681).
T3 sequence (whole entry): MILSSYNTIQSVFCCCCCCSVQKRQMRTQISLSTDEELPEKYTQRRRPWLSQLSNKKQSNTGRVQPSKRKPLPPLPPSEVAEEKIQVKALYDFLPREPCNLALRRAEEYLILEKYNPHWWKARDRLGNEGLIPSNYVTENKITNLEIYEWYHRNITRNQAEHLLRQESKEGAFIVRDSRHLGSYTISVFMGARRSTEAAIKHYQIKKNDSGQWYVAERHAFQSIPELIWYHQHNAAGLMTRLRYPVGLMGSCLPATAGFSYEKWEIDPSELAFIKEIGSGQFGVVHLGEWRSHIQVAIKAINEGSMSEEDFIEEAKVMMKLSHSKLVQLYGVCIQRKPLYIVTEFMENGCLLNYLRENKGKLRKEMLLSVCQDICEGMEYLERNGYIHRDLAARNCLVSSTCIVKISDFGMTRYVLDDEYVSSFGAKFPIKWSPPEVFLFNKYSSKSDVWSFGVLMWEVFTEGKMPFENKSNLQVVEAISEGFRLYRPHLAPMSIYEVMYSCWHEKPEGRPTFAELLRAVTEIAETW
Kind of data set: Inhibition of TXK (unknown origin) at 1 uM relative to control.

Data set [17] addresses Tyrosine-protein kinase BTK (Homo sapiens, UniProt Q06187). Kind of data set: Inhibition of BTK (unknown origin).
The target in data set [18] is T4, Cytochrome P450 2B6 (Homo sapiens, UniProt P20813).
T4 sequence (P20813 whole entry): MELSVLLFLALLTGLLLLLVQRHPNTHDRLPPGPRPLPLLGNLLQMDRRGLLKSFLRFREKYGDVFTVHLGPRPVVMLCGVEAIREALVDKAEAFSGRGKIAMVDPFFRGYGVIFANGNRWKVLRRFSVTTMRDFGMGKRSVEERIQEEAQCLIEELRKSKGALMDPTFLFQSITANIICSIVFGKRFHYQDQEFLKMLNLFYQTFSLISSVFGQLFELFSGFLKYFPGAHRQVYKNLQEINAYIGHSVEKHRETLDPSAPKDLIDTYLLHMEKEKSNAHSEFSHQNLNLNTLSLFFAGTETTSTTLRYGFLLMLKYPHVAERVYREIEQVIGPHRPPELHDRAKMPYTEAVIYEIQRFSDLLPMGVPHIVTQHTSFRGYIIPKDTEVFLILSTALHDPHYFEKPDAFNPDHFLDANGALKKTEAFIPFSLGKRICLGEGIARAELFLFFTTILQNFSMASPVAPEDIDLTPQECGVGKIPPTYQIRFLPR
Kind of data set: Inhibition of CYP2B6 (unknown origin). The class given is ADME.

Data set [19] deals with Cytochrome P450 2C19 (Homo sapiens, UniProt P33261). Description: Inhibition of CYP2C19 (unknown origin). It counts as ADME.
Data set [20] addresses Cytochrome P450 2C9 (Homo sapiens, UniProt P11712). Description: Inhibition of CYP2C9 (unknown origin). The class given is ADME.
The target of data set [21] is Cytochrome P450 3A4 (Homo sapiens, UniProt P08684). Kind of data set: Inhibition of CYP3A4 (unknown origin). It counts as ADME.
Data set [22] deals with EGFR (Homo sapiens, UniProt P00533). Kind of data set: Inhibition of EGFR (unknown origin) at 1 uM relative to control.
Chain of EGFR (P00533 whole entry): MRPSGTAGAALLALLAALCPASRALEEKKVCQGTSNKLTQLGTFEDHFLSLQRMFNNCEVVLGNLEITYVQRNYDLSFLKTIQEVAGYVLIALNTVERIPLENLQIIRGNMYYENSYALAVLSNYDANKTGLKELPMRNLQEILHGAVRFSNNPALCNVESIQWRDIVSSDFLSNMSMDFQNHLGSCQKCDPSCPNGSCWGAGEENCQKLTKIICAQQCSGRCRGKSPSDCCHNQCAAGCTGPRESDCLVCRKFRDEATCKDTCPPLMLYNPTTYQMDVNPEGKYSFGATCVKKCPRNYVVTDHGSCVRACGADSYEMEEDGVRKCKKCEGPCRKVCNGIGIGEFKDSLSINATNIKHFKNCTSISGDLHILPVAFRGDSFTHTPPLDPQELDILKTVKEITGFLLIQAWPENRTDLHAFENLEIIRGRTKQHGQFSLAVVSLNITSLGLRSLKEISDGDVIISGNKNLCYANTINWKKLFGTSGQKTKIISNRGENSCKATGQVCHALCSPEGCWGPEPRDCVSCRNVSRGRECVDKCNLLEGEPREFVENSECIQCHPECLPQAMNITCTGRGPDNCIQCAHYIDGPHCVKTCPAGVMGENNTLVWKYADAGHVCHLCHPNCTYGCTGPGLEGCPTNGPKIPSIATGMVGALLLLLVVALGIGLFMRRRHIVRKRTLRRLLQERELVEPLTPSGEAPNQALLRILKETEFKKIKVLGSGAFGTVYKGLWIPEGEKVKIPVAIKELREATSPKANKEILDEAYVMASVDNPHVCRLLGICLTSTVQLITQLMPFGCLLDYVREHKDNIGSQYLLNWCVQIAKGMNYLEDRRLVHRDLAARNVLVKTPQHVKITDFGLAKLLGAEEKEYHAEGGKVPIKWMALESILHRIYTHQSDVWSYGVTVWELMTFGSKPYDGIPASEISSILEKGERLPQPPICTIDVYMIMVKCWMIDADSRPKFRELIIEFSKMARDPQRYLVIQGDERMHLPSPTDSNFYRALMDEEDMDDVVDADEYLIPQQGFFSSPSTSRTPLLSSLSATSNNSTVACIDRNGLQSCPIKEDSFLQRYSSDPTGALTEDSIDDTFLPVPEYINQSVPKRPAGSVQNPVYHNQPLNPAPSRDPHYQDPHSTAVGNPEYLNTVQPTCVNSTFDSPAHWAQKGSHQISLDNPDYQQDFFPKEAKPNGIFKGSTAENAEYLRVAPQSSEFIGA

Chain of Tyrosine-protein kinase BTK (Q06187 whole entry): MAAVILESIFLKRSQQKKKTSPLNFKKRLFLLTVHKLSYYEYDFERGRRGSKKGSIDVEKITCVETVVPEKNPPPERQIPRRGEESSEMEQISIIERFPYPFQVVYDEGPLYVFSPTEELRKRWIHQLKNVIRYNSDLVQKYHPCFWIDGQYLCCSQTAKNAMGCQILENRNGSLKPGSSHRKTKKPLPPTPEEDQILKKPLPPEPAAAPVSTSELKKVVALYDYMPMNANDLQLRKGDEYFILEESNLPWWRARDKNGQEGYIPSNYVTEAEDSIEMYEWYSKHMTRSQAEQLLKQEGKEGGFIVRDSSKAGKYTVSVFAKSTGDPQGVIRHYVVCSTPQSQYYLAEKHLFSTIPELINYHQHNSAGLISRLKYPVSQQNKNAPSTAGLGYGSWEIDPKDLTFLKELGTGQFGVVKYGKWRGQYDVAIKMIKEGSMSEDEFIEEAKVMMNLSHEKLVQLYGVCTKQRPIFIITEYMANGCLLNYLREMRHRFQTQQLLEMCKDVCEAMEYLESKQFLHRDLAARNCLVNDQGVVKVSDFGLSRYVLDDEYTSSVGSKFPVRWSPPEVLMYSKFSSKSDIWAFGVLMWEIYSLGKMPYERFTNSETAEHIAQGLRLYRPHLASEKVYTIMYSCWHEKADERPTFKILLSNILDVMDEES
Chain of Tyrosine-protein kinase Blk (Homo sapiens) (P51451 2-505 limits assumed): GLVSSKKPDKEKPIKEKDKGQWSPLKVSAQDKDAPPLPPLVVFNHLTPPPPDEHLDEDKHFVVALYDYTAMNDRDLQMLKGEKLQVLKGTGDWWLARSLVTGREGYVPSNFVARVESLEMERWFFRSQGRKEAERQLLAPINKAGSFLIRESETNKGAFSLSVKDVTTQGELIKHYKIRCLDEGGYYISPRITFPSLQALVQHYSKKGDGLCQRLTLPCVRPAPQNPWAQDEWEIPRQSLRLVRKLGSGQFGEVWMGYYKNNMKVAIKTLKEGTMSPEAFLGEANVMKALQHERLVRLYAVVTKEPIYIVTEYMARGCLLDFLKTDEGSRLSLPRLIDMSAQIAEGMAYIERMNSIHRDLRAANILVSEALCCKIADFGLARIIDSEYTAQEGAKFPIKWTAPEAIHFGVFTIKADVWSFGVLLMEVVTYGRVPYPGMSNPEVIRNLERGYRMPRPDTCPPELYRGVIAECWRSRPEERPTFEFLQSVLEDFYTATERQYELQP
Chain of Cytochrome P450 3A4 (P08684 whole entry): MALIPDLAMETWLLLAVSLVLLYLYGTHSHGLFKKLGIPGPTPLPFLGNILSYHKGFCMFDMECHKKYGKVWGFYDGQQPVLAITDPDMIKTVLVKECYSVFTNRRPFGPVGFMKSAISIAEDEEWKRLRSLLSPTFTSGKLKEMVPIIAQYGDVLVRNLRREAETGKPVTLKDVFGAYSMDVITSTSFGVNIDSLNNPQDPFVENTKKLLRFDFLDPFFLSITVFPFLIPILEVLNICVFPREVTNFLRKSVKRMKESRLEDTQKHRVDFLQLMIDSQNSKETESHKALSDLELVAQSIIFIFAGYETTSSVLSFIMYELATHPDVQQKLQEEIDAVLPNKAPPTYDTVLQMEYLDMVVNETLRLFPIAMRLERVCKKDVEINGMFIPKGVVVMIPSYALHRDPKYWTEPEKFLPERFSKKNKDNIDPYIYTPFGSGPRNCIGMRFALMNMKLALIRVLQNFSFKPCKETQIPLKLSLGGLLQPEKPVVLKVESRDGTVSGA
Chain of Cytochrome P450 2C9 (P11712 whole entry): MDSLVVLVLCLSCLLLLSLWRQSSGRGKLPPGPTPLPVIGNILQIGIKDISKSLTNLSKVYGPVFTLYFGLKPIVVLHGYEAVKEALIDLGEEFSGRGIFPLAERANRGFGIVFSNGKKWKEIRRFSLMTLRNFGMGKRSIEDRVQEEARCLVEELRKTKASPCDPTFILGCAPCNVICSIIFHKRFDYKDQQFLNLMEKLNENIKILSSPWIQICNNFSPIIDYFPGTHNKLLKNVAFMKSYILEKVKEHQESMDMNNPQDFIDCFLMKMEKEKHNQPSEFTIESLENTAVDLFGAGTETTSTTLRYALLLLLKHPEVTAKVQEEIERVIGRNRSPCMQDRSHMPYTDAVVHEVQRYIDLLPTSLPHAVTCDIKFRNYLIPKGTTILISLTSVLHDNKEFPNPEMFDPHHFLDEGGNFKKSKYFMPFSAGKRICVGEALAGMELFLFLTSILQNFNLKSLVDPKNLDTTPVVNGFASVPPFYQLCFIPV
Chain of Voltage-gated inwardly rectifying potassium channel KCNH2 (Q12809 whole entry): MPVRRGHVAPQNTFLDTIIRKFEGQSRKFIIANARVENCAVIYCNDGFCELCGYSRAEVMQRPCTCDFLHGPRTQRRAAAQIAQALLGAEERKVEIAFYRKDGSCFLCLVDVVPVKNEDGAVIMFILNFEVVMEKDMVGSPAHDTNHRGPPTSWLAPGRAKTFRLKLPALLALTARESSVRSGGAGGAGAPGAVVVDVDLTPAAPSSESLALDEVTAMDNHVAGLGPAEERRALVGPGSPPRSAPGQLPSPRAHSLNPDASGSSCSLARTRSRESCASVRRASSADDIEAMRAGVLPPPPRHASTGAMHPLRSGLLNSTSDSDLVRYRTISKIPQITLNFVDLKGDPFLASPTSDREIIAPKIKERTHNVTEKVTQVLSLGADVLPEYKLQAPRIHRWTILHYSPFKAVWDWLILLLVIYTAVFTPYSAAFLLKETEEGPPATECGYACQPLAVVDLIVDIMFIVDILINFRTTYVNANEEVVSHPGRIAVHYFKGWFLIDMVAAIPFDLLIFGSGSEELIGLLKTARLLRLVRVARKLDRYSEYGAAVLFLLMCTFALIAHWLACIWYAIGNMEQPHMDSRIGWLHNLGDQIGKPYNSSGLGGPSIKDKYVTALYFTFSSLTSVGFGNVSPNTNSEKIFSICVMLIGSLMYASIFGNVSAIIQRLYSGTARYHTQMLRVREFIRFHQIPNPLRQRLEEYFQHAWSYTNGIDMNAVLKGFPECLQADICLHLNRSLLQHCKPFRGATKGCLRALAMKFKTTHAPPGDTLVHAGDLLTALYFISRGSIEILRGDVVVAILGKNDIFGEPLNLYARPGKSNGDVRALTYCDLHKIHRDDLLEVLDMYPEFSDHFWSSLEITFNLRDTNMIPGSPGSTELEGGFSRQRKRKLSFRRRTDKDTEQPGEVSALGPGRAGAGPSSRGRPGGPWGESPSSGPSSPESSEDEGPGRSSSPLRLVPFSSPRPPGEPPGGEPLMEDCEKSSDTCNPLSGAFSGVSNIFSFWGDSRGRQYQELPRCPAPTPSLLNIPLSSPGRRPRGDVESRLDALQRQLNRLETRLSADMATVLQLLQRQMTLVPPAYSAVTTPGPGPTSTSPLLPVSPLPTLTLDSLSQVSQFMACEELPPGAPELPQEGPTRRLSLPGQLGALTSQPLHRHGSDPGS
Chain of Cytochrome P450 2C19 (P33261 whole entry): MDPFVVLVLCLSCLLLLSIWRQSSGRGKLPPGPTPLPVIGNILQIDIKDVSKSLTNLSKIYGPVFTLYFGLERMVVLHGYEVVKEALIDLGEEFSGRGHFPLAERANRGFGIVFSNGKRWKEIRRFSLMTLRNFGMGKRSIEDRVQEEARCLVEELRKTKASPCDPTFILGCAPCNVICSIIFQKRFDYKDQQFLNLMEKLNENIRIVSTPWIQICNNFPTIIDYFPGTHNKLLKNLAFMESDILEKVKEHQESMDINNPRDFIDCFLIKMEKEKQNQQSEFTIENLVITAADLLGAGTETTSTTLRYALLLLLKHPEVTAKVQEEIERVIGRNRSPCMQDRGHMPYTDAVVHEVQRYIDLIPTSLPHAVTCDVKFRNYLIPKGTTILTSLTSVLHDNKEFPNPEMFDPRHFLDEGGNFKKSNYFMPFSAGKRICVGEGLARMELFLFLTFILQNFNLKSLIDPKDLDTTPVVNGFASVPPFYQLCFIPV

On to `C=CC(=O)NCC1CCCN(c2ccc(C(N)=O)c(Oc3ccc(Oc4ccccc4)cc3)n2)C1` (configuration not stated), for which the microsomal CLint in [1] was 140 µL/min/mg; in data set [2], 562 µL/min/mg; in data set [3], 302 µL/min/mg.

As to `C=CC(=O)N1C[C@@H]2C[C@H]1CN2c1ccc(C(N)=O)c(Oc2ccc(Oc3ccccc3)cc2)n1`, the Papp A→B in data set [4] is 6.7 to 6.8 ×10⁻⁶ cm/s. The microsomal CLint was determined as 74 µL/min/mg in data set [1], 62 µL/min/mg in data set [2] and 203 µL/min/mg in data set [3]. In addition, the fraction unbound was found to be 0.0046 in data set [5], 0.002 in data set [6] and 0.0031 in data set [7]. The Ki in data set [8] was determined as 2.2 µM. Also, the IC50 in data set [9] was found to be 0.1 µM. This compound also gave an apparent clearance CL/F in [10] of 20.7 mL/min/kg. The Vdss in data set [11] is 0.86 L/kg. Besides, the half-life in data set [12] was 43.2 min. In data set [13], this compound yielded a bioavailability of 47%. In addition, the inhibition came to 96% in [14], 95% in data set [15] and 54% in data set [16].

In the case of `C=CC(=O)N1C[C@H]2C[C@@H]1CN2c1ccc(C(N)=O)c(Oc2ccc(Oc3ccccc3)cc2)n1`, the Papp A→B in data set [4] amounted to 8 ×10⁻⁶ cm/s. Moreover, the figures for the microsomal CLint in data set [1], in data set [2] and in [3] were 33 µL/min/mg, 472 µL/min/mg and 148 µL/min/mg, respectively.

For the compound `C=CC(=O)N[C@H]1CCN(c2ccc(C(N)=O)c(Oc3ccc(Oc4ccccc4)cc3)n2)C1`, the Papp A→B in [4] worked out at 14 ×10⁻⁶ cm/s. Further, the microsomal CLint in data set [1] was 10 µL/min/mg; in data set [2], 27 µL/min/mg; in data set [3], 21 µL/min/mg.

Consider `C=CC(=O)N1CCN(c2ccc(C(N)=O)c(Oc3ccc(Oc4ccccc4)cc3)n2)CC1`, for which the Papp A→B in [4] was found to be 13 ×10⁻⁶ cm/s. The microsomal CLint in data set [1] was below 10 µL/min/mg; in data set [2], 18 µL/min/mg; in [3], 97 µL/min/mg.

Turning to `C=CC(=O)N[C@H]1CCN(c2ccc(C(N)=O)c(Nc3ccc(C(=O)N4CCOCC4)cc3)n2)C1`, in data set [17], the IC50 turned out to be 0.0016 µM.

`C=CC(=O)N[C@H]1CCN(c2ccc(C(N)=O)c(Oc3ccc(C(=O)N4CCOCC4)cc3)n2)C1` came in with an IC50 in data set [17] of 10 µM.

`C=CC(=O)N[C@@H]1CCCN(c2ccc(C(N)=O)c(Oc3ccc(Oc4ccccc4)cc3)n2)C1`: the microsomal CLint in [1] turned out to be 309 µL/min/mg; in data set [2] it was 488 µL/min/mg; in [3], 1000 µL/min/mg.

On to `C=CC(=O)N1C2CC1CN(c1ccc(C(N)=O)c(Oc3ccc(Oc4ccccc4)cc3)n1)C2`, for which the figures for the microsomal CLint in [1], in data set [2] and in data set [3] were 49 µL/min/mg, 647 µL/min/mg and 167 µL/min/mg, respectively.

Turning to `C=CC(=O)N1CC[C@H](Nc2ccc(C(N)=O)c(Oc3ccc(Oc4ccccc4)cc3)n2)C1`, in [4], the Papp A→B was determined as 3 ×10⁻⁶ cm/s. Further, the microsomal CLint is 125 µL/min/mg in data set [1], 228 µL/min/mg in data set [2] and 254 µL/min/mg in data set [3].

Turning to `C=CC(=O)N1CCC[C@@H](n2nc(-c3ccc(Oc4ccccc4)cc3)c3c(N)ncnc32)C1` [IBRUTINIB], in data set [4], the Papp A→B is 7.2 ×10⁻⁶ cm/s. The fraction unbound was found to be 0.025 in data set [5], 0.017 in [6] and 0.02 in [7]. The IC50 in data set [18] turned out to be 11.1 µM; in data set [19], 19 µM; in data set [20], 8.5 µM; in data set [21] it was 11 µM. Further, the half-life in data set [12] was 30 min. The same compound registered a bioavailability in data set [13] of 12%. In [22], this compound yielded an inhibition at 1 µM above 50%.

Consider `C=CC(=O)N1CC[C@@H](Nc2ccc(C(N)=O)c(Oc3ccc(Oc4ccccc4)cc3)n2)C1`, for which, in data set [4], the Papp A→B turned out to be 10 ×10⁻⁶ cm/s. Besides, the microsomal CLint in data set [1] worked out at 156 µL/min/mg; in [2], 191 µL/min/mg; in [3], 136 µL/min/mg.

As for `C=CC(=O)N1C2CCC1CN(c1ccc(C(N)=O)c(Oc3ccc(Oc4ccccc4)cc3)n1)C2`, the Papp A→B in data set [4] was 0.6 ×10⁻⁶ cm/s. Also, the microsomal CLint in data set [1] amounted to 106 µL/min/mg; in data set [2], 315 µL/min/mg; in data set [3], 145 µL/min/mg.
